This is an account of results in US20160002240A1, “NUCLEOSIDE ANALOG SALTS WITH IMPROVED SOLUBILITY AND METHODS OF FORMING SAME” (THE BOARD OF TRUSTEES OF THE UNIVERSITY OF ALABAMA, priority 2013, published 2016).

The conditions of series [1]: at 25° C.; cited from earlier work.
A short description of series [2]: Solubility in simulated biological fluids (PBS, SIF, SGF). The note with it: for Solubility in PBS (pH = 7.4): phosphate buffer saline pH 7.4. Here is the method: For all solvents used (water, Phosphate Buffer Solution (PBS), Simulated Gastric Fluid (SGF), Simulated Intestinal Fluid (SIF)) same amount of compound/solvent was used: 0.1 g compound/0.5 mL solvent. The solutions were stirred at room temperature for 24 h. The resulting suspensions were filtered through a 0.2 μm Teflon syringe filter to obtain clear solutions. […] Deuterated dmso (dmso-d6) containing 0.05% (v/v) TMS (as internal standard) was used to run the ^1H-NMR. 0.1 mL of the filtered solutions were combined with 0.4 mL dmso-d6 w/ 0.05% (v/v) TMS (corresponding to 1.836×10-6 mols TMS). The solubility values were determined from the molar ratio between the peaks corresponding to the compound and TMS.
Solubility experiments were conducted as described in example 12.

For series [3] the following is noted: cited from earlier work.
A short description of series [4]: Solubility in deionized water, UV absorbance at 254 nm with calibration curve. The procedure:
The UV-VIS spectra used for development of calibration curves and for determination of the solubility values were performed on a Varian CARY 3 UV-Visible Spectrophotometer.
After filtering through Teflon syringe filters 0.2 μm), UV was used to determine the absorbance at 254 nm. A calibration curve of the compound in water was used to determine the concentration.
In a vial, 5.500 g [Cho][Acy] was mixed with 2 mL DI H2O.
(§1) A calibration curve of the compound in water was used to determine the concentration.
In a vial, 0.500 g [N1,1,1,16][Acy] was suspended in 1 mL DI H2O. The mixture was stirred for 24 h at room temperature. […] After filtering through a Teflon syringe filter (0.2 μm), 0.1 mL solution was diluted to 25 mL with DI H2O and its absorbance at 254 nm was determined.
as §1
In a vial, 4.8 g [P4,4,4,4][Acy] was suspended in 2 mL DI H2O. The mixture was stirred for 24 h at room temperature.
In a vial, 0.150 g [Acy]HCl was suspended in 1 mL DI H2O. The mixture was stirred for 24 h at room temperature. […] After filtering, 0.1 mL solution was diluted to 25 mL with DI H2O and its absorbance was determined.
In a vial, 0.2 g [Acy][Doc] was suspended in 1.5 mL DI H2O. […] To about 0.3 mL of this emulsion, water was added dropwise (mixing well each time after water was added) until a more clear mixture was obtained. […] The mixture was sonicated for about 30 min; this process (add water, sonication) was repeated until a clear solution was obtained. 0.5 mL of the clear solution obtained was diluted to 50 mL with DI H2O and UV was used to determine the absorbance at 254 nm.
as §1

The nature of series [5]: Thermogravimetric analysis (thermal stability). The series is classed as physicochemical. The settings on record: for T5%onset: Table 4, onset temperature of initial 5 wt % mass loss, nitrogen, 5° C./min. The procedure: TGA experiments were performed on a Mettler Toledo TGA/DSC1 Star unit under a stream of nitrogen. Samples (5-20 mg) were placed on a platinum pan and were heated from 25° C. to 800° C. with a constant heating rate of 5° C./min and with a 30 min isotherm at 75° C. to remove any remaining volatiles. Decomposition temperatures (T5% onset) were reported as the onset temperature with respect to the initial 5 wt % mass loss.

[6] abbreviates: quantitative NMR, room temperature, 24 h.
Where [7] appears, read: simulated intestinal fluid pH 6.8 without pancreatin, quantitative NMR.

Where “and” joins values, the source holds several entries; their conditions need not be identical. Equal values may be shown once. Read-outs that look alike come from different tables or passages of the source. Marks after values point to notes of the source that are not given here.

In the case of `Nc1nc2c(ncn2COCCO)c(=O)[nH]1` [Acyclovir, reference compound], the “Water solubility, literature value” in series [1] was 5.77 mM. In addition, in series [2] (determined using UV-Vis), the “Solubility in PBS (pH = 7.4)” value is 1.4^b mg ‘acyclovir’/mL. In addition, the “Solubility in PBS (pH = 7.4)” value in series [2] (setting [6]) is on record as 1.5 mg ‘acyclovir’/mL. Moreover, the “Solubility in SIF (pH = 6.8)” value in series [2] (setting [7]) was 2.22 mg ‘acyclovir’/mL. Moreover, the Oral bioavailability in series [3] is recorded as 10-20%. Besides, in series [4], the Water solubility was found to be 1.42 mg/mL, the “Water solubility mg/mL (g/L)” value is on record as 1.42 mg/mL (g/L) and the “Water solubility mol/L” value was 0.0063 (0) mol/L. The compound also displayed a T5%onset in series [5] of 240 °C.
For the compound `Nc1nc2c(ncn2COCCO)c(=O)[nH]1` [[Cho][Acy] (1)] [choline acyclovir], in series [4], the Water solubility came to 1019.42 mg/mL, the “Water solubility mg/mL (g/L)” value was 1019.42 mg/mL (g/L) and the “Water solubility mol/L” value is 3.1045 (81) mol/L. Further, the T5%onset in series [5] came out at 128 °C.
Regarding `Cl.Nc1nc2c(ncn2COCCO)c(=O)[nH]1` [[H2Acy]Cl (6), acyclovir hydrochloride], the “Solubility in SGF (pH = 1.2)” value in series [2] (pH 1.2) is 292.8 mg ‘acyclovir’/mL. Besides, in series [2] (pH 6.8), the “Solubility in SIF (pH = 6.8)” value is 167.0 mg ‘acyclovir’/mL. Also, in series [5], the T5%onset turned out to be 156 °C.
With `Nc1nc2c(ncn2COCCO)c(=O)[nH]1` [[H2Acy][Doc] (7)] [acyclovir docusate], in series [4], the “Solubility in deionized water, average” value was 8.46 mg/mL; the Water solubility is on record as 8.48 mg/mL; the “Water solubility mg/mL (g/L)” value is reported as 8.47 mg/mL (g/L); the “Water solubility mol/L” value is 0.0131 (0) mol/L. Besides, the “Solubility in deionized water, single determination” value in series [4] (room temperature, stirred 24 h (acyclovir overnight), individual replicate (1st, 2nd, 3rd)) was 13.06 mM and 13.05 mM. The “Solubility in deionized water, average” value in series [4] (room temperature, average of replicates, text of Examples) amounted to 13.06 mM. This compound also yielded a T5%onset in series [5] of 122 °C.
On to `Nc1nc2c(ncn2COCCO)c(=O)[nH]1` [[N1,1,1,16][Acy] (3)] [trimethylhexadecylammonium acyclovir], for which, in series [4], the Water solubility is on record as 252.18 mg/mL, the “Water solubility mg/mL (g/L)” value was 252.18 mg/mL (g/L) and the “Water solubility mol/L” value is given as 0.4957 (4) mol/L. In addition, in series [5], the T5%onset was 150 °C.
In series [5], `Nc1nc2c(ncn2COCCO)c(=O)[nH]1` [[N4,4,4,1][Acy] (2)] [tributylmethylammonium acyclovir] showed a T5%onset of 115 °C.
For the compound `Nc1nc2c(ncn2COCCO)c(=O)[nH]1` [[N4,4,4,4][Acy] (5)] [tetrabutylammonium acyclovir], the “Solubility in PBS (pH = 7.4)” value in series [2] (setting [6]) is given as 1.0 mg ‘acyclovir’/mL. For the same compound, the “Solubility in SIF (pH = 6.8)” value in series [2] (setting [7]) is 144.0 mg ‘acyclovir’/mL. Also, in series [5], the T5%onset is 132 °C.
On to `Nc1nc2c(ncn2COCCO)c(=O)[nH]1` [[P4,4,4,4][Acy] (4)] [tetrabutylphosphonium acyclovir], for which, in series [4], the Water solubility is recorded as 803.89 mg/mL, the “Water solubility mg/mL (g/L)” value was 803.89 mg/mL (g/L) and the “Water solubility mol/L” value was 1.6622 (41) mol/L. In addition, in series [5], the “T5% onset (onset for 5% decomposition from TGA)” value is 221 °C and the T5%onset came out at 221 °C.
For `CC(C)[C@H](N)C(=O)OCCOCn1cnc2c(=O)[nH]c(N)nc21` [valacyclovir], the Oral bioavailability entry in series [3] is recorded as “about 55%”.
As to acyclovir docusate [[H2Acy][Doc] (7)], the “Stability of emulsion in water” value in series [4] was “at least 48 h”.
